One assay relates to Puccinia triticina. Put plainly: Wheat brown rust (PUCCRT) disease control on wheat seedlings. Also on record: key to PUCCRT 3DC, HV activity at 100 ppm (% control rating) / PUCCRT disease control, 3DC / PUCCRT 1DP disease control rating, HV activity / PUCCRT 3DC disease control rating, HV activity / PUCCRT 3DC, LV activity at 125.1 g/H (% Control rating) / PUCCRT 1DP, LV activity at 125.1 g/H (% Control rating) / PUCCRT 3DC disease control rating, LV activity at 125.1 g/H / PUCCRT 1DP disease control rating, LV activity at 125.1 g/H / PUCCRT 3DC disease control rating, HV activity at 100 ppm / PUCCRT 1DP disease control rating, HV activity at 100 ppm / HV activity at 100 ppm PUCCRT 3DC (disease control rating) / LV activity at 125.1 g/H PUCCRT 1DP (disease control rating) / LV activity at 125.1 g/H PUCCRT 3DC (disease control rating): A: > 80; B: ≤ 80; C: Not Tested; D: No Activity Observed in the Reported Assay. Conditions: for PUCCRT 1DP disease control rating, HV activity / PUCCRT 3DC disease control rating, HV activity: HV application at 100 ppm. Format: in vivo. The procedure:
All fungicides were evaluated using the aforementioned method for their activity vs. all target diseases, unless stated otherwise. Wheat leaf blotch and brown rust activity were also evaluated using track spray applications, in which case the fungicides were formulated as EC formulations, containing 0.1% Trycol 5941 in the spray solutions. Wheat plants (variety Yuma) were grown from seed in a greenhouse in 50% mineral soil/50% soil-less Metro mix until the first leaf was fully emerged, with 7-10 seedlings per pot. These plants were inoculated with an aqueous spore suspension of Zymoseptoria tritici either prior to or after fungicide treatments. After inoculation the plants were kept in 100% relative humidity (one day in a dark dew chamber followed by two to three days in a lighted dew chamber at 20° C.) to permit spores to germinate and infect the leaf. The plants were then transferred to a greenhouse set at 20° C. for disease to develop. When disease symptoms were fully expressed on the 1st leaves of untreated plants, infection levels were assessed on a scale of 0 to 100 percent disease severity. Percent disease control was calculated using the ratio of disease severity on treated plants relative to untreated plants. Example B: Evaluation of Fungicidal Activity: Wheat Brown Rust (Puccinia triticina; Synonym: Puccinia recondita f. sp. Tritici; Bayer Code PUCCRT) Wheat plants (variety Yuma) were grown from seed in a greenhouse in 50% mineral soil/50% soil-less Metro mix until the first leaf was fully emerged, with 7-10 seedlings per pot. These plants were inoculated with an aqueous spore suspension of Puccinia triticina either prior to or after fungicide treatments. […] The plants were then transferred to a greenhouse set at 24° C. for disease to develop. Fungicide formulation, application and disease assessment followed the procedures as described in the Example A.

The next assay has as its system Zymoseptoria tritici. Kind of assay: Leaf blotch of wheat (SEPTTR) disease control on wheat seedlings. The assay is classed as in vivo. Also on record: key to SEPTTR 1DP, HV activity at 100 ppm (% control rating) / SEPTTR 3DC, HV activity at 100 ppm (% control rating) / SEPTTR disease control, 1DP / SEPTTR disease control, 3DC / SEPTTR 1DP disease control rating, HV activity / SEPTTR 3DC disease control rating, HV activity / SEPTTR 3DC, LV activity at 125.1 g/H (% Control rating) / SEPTTR 1DP, LV activity at 125.1 g/H (% Control rating) / SEPTTR 1DP disease control rating, LV activity at 125.1 g/H / SEPTTR 3DC disease control rating, LV activity at 125.1 g/H / SEPTTR 3DC disease control rating, HV activity at 100 ppm / SEPTTR 1DP disease control rating, HV activity at 100 ppm / HV activity at 100 ppm SEPTTR 3DC (disease control rating) / HV activity at 100 ppm SEPTTR 1DP (disease control rating) / LV activity at 125.1 g/H SEPTTR 1DP (disease control rating) / LV activity at 125.1 g/H SEPTTR 3DC (disease control rating): A: > 80; B: ≤ 80; C: Not Tested; D: No Activity Observed in the Reported Assay. As to conditions: for SEPTTR 1DP disease control rating, HV activity / SEPTTR 3DC disease control rating, HV activity: HV application at 100 ppm. On the procedure: All fungicides were evaluated using the aforementioned method for their activity vs. all target diseases, unless stated otherwise. Wheat leaf blotch and brown rust activity were also evaluated using track spray applications, in which case the fungicides were formulated as EC formulations, containing 0.1% Trycol 5941 in the spray solutions. Wheat plants (variety Yuma) were grown from seed in a greenhouse in 50% mineral soil/50% soil-less Metro mix until the first leaf was fully emerged, with 7-10 seedlings per pot. These plants were inoculated with an aqueous spore suspension of Zymoseptoria tritici either prior to or after fungicide treatments. After inoculation the plants were kept in 100% relative humidity (one day in a dark dew chamber followed by two to three days in a lighted dew chamber at 20° C.) to permit spores to germinate and infect the leaf. The plants were then transferred to a greenhouse set at 20° C. for disease to develop. When disease symptoms were fully expressed on the 1st leaves of untreated plants, infection levels were assessed on a scale of 0 to 100 percent disease severity. Percent disease control was calculated using the ratio of disease severity on treated plants relative to untreated plants.

[1] abbreviates: low volume application, 125.1 g/H, 1 Day Protectant.
[2] abbreviates: low volume application, 125.1 g/H, 3 Day Curative.
[3] abbreviates: 1 Day Protectant, wheat brown rust.
[4] abbreviates: 3 Day Curative, wheat brown rust.
Setting [5] is: 1 Day Protectant, wheat leaf blotch.
Where [6] appears, read: 3 Day Curative, wheat leaf blotch.

In the case of `COc1ccnc(C(=O)N[C@@H](C)C(=O)O[C@@H](C)[C@H](Oc2ccc(Cl)cc2Cl)c2ccccc2)c1OC(C)=O` [Cmpd 635], the “PUCCRT 1DP, LV activity at 125.1 g/H (% Control rating)” value (shortened to “PUCCRT 1DP … (% Control rating)”) in the assay on Puccinia triticina (setting [1]) is recorded as “A (> 80)”. The “PUCCRT 3DC, LV activity at 125.1 g/H (% Control rating)” value (“PUCCRT 3DC … (% Control rating)” below) in the assay on Puccinia triticina (setting [2]) is on record as “B (≤ 80)”. In addition, in the assay on Zymoseptoria tritici (setting [1]), the “SEPTTR 1DP, LV activity at 125.1 g/H (% Control rating)” value (from here on “SEPTTR 1DP … (% Control rating)”) is “A (> 80)”. The “SEPTTR 3DC, LV activity at 125.1 g/H (% Control rating)” value (shortened to “SEPTTR 3DC … (% Control rating)”) in the assay with Zymoseptoria tritici (setting [2]) was “A (> 80)”.

For `COc1ccnc(C(=O)N[C@H](C(=O)O[C@@H](C)[C@H](Oc2cccc3ccccc23)C(C)C)C(C)C)c1OCOC(C)=O` [Cmpd 624], in the assay with Puccinia triticina (setting [1]), the “PUCCRT 1DP … (% Control rating)” value is listed as “A (> 80)”. For the same compound, the “PUCCRT 3DC … (% Control rating)” value with Puccinia triticina (setting [2]) is reported as “A (> 80)”. Also, the “SEPTTR 1DP … (% Control rating)” value in the assay with Zymoseptoria tritici (setting [1]) is “B (≤ 80)”. The “SEPTTR 3DC … (% Control rating)” value in the assay with Zymoseptoria tritici (setting [2]) is “D”.

`COc1ccnc(C(=O)N[C@@H](C)C(=O)O[C@@H](C)[C@H](Oc2ccc(C)cc2Cl)C(C)(C)C)c1OC(C)=O` [Cmpd 1067]: the “LV activity at 125.1 g/H PUCCRT 1DP (disease control rating)” value with Puccinia triticina (low volume application, 125.1 g/H, 1 Day Protectant, wheat brown rust) is recorded as “A (> 80)”. The “LV activity at 125.1 g/H PUCCRT 3DC (disease control rating)” value in the assay with Puccinia triticina (low volume application, 125.1 g/H, 3 Day Curative, wheat brown rust) is recorded as “B (≤ 80)”. Moreover, in the assay on Zymoseptoria tritici (low volume application, 125.1 g/H, 1 Day Protectant, wheat leaf blotch), the “LV activity at 125.1 g/H SEPTTR 1DP (disease control rating)” value was “D”. The “LV activity at 125.1 g/H SEPTTR 3DC (disease control rating)” value in the assay with Zymoseptoria tritici (low volume application, 125.1 g/H, 3 Day Curative, wheat leaf blotch) is “B (≤ 80)”.

In the case of `CCC(CC)[C@@H](Oc1ccc(Cl)cc1Cl)[C@H](C)OC(=O)[C@H](C)NC(=O)c1nccc(OC)c1OCOC(C)=O` [Cmpd 590], the “PUCCRT 1DP … (% Control rating)” value with Puccinia triticina (setting [1]) is on record as “A (> 80)”. For the same compound, in the assay on Puccinia triticina (setting [2]), the “PUCCRT 3DC … (% Control rating)” value is reported as “B (≤ 80)”. Also, in the assay on Zymoseptoria tritici (setting [1]), the “SEPTTR 1DP … (% Control rating)” value is reported as “B (≤ 80)”. Further, the “SEPTTR 3DC … (% Control rating)” value in the assay on Zymoseptoria tritici (setting [2]) is “B (≤ 80)”.

Consider `COc1ccnc(C(=O)N[C@@H](C)C(=O)O[C@@H](C)[C@@H](CC(C)C)Oc2cccc(F)c2)c1O` [Cmpd 1048], for which the “HV activity at 100 ppm PUCCRT 1DP (disease control rating)” value in the assay on Puccinia triticina (HV application, 100 ppm, 1 Day Protectant, wheat brown rust) is reported as “A (> 80)”. Also, the “HV activity at 100 ppm PUCCRT 3DC (disease control rating)” value in the assay with Puccinia triticina (HV application, 100 ppm, 3 Day Curative, wheat brown rust) is “A (> 80)”. Besides, the “HV activity at 100 ppm SEPTTR 1DP (disease control rating)” value with Zymoseptoria tritici (HV application, 100 ppm, 1 Day Protectant, wheat leaf blotch) is given as “B (≤ 80)”. For the same compound, the “HV activity at 100 ppm SEPTTR 3DC (disease control rating)” value in the assay with Zymoseptoria tritici (HV application, 100 ppm, 3 Day Curative, wheat leaf blotch) was “A (> 80)”.

With `CCC(CC)C(Oc1cccc(-c2ccccc2)c1)C(C)OC(=O)C(C)NC(=O)c1nccc(OC)c1O` (centres unmarked) [Cmpd 386], in the assay on Puccinia triticina (setting [3]), the “PUCCRT 1DP disease control rating, HV activity” value is “B (≤ 80)”. Further, the “PUCCRT 3DC disease control rating, HV activity” value in the assay on Puccinia triticina (setting [4]) is reported as “B (≤ 80)”. Further, the “SEPTTR 1DP disease control rating, HV activity” value in the assay with Zymoseptoria tritici (setting [5]) is on record as “D”. Moreover, the “SEPTTR 3DC disease control rating, HV activity” value in the assay on Zymoseptoria tritici (setting [6]) is listed as “D”.

On to `COc1ccnc(C(=O)NC(C)C(=O)OC(C)C(Oc2cccc3ccccc23)C(C)C)c1O` (centres unmarked) [Cmpd 397], for which, in the assay on Puccinia triticina (setting [3]), the “PUCCRT 1DP disease control rating, HV activity” value is recorded as “A (> 80)”. For the same compound, the “PUCCRT 3DC disease control rating, HV activity” value with Puccinia triticina (setting [4]) is on record as “A (> 80)”. Further, the “SEPTTR 1DP disease control rating, HV activity” value with Zymoseptoria tritici (setting [5]) is “B (≤ 80)”. Also, the “SEPTTR 3DC disease control rating, HV activity” value with Zymoseptoria tritici (setting [6]) is recorded as “B (≤ 80)”.

`COc1ccnc(C(=O)N[C@@H](CC(C)C)C(=O)O[C@@H](C)[C@H](Oc2ccc(Cl)cc2Cl)C(C)C)c1OC(C)=O` [Cmpd 570]: in the assay with Puccinia triticina (setting [1]), the “PUCCRT 1DP … (% Control rating)” value is reported as “D”. For the same compound, in the assay with Puccinia triticina (setting [2]), the “PUCCRT 3DC … (% Control rating)” value was “D”. Also, in the assay on Zymoseptoria tritici (setting [1]), the “SEPTTR 1DP … (% Control rating)” value was “D”. Besides, in the assay with Zymoseptoria tritici (setting [2]), the “SEPTTR 3DC … (% Control rating)” value is listed as “D”.

The record behind these values is patent US20180000085A1, “USE OF PICOLINAMIDE COMPOUNDS WITH FUNGICIDAL ACTIVITY” (DOW AGROSCIENCES LLC, priority 2014, published 2018).
